In the supplement of paper PMC10307832:

Experiments:
Experiment in all cases: relative viability (nuclei count vs DMSO), 5 days (fraction); higher = more cells survive
[1] = compound: CN1C=C(C2=CC=CC=C21)/C=C\3/C4=C(C=CC=N4)NC3=O + COc1cccc2cc(-c3nc([C@H]4CC[C@H](C(=O)O)CC4)n4ncnc(N)c34)[nH]c12 [OSI-027] (partner 0.5 µM)
Procedure, shortened: (§1)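 Relative viability was taken as the ratio of nuclei in treated wells to nuclei in vehicle wells. Lung cancer cell lines in 1536-well plates received compounds by pin tool one day after seeding, either one drug alone or a fixed anchor-drug dose plus five library-drug doses (not always all listed) in √10 steps. Nuclei were counted on 4× images after 5 days of treatment, and values are medians of duplicate plates.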

[2] = compound: CN1C=C(C2=CC=CC=C21)/C=C\3/C4=C(C=CC=N4)NC3=O + N=C(N)NC(=N)NCCc1ccccc1 [Phenformin] (partner 250 µM)
Procedure, shortened: as §1

Trametinib + Pemetrexed = compound: CC(=O)Nc1cccc(-n2c(=O)n(C3CC3)c(=O)c3c(Nc4ccc(I)cc4F)n(C)c(=O)c(C)c32)c1 [Trametinib] + Nc1nc2[nH]cc(CCc3ccc(C(=O)N[C@@H](CCC(=O)O)C(=O)O)cc3)c2c(=O)[nH]1 [Pemetrexed] (partner 0.2 µM)
Procedure, shortened: as §1

Trametinib + Foretinib = compound: CC(=O)Nc1cccc(-n2c(=O)n(C3CC3)c(=O)c3c(Nc4ccc(I)cc4F)n(C)c(=O)c(C)c32)c1 [Trametinib] + COc1cc2c(Oc3ccc(NC(=O)C4(C(=O)Nc5ccc(F)cc5)CC4)cc3F)ccnc2cc1OCCCN1CCOCC1 [Foretinib] (partner 0.25 µM)
Procedure, shortened: as §1

Cell Line	relative viability ([1]; first compound 0.02 µM)	relative viability ([1]; first compound 0.06325 µM)	relative viability ([1]; first compound 0.2 µM)	relative viability ([1]; first compound 0.6325 µM)	relative viability ([1]; first compound 2 µM)	relative viability ([2]; first compound 0.02 µM)	relative viability ([2]; first compound 0.06325 µM)	relative viability ([2]; first compound 0.2 µM)	relative viability ([2]; first compound 0.6325 µM)	relative viability ([2]; first compound 2 µM)	relative viability (Trametinib + Pemetrexed; first compound 0.0025 µM)	relative viability (Trametinib + Pemetrexed; first compound 0.007906 µM)	relative viability (Trametinib + Pemetrexed; first compound 0.025 µM)	relative viability (Trametinib + Pemetrexed; first compound 0.25 µM)	relative viability (Trametinib + Foretinib; first compound 0.0025 µM)	relative viability (Trametinib + Foretinib; first compound 0.007906 µM)	relative viability (Trametinib + Foretinib; first compound 0.025 µM)	relative viability (Trametinib + Foretinib; first compound 0.07906 µM)	relative viability (Trametinib + Foretinib; first compound 0.25 µM)	relative viability (Trametinib + Pemetrexed; first compound 0.07906 µM)
NCI-H2405	0.703	0.611	0.62	0.657	0.711	0.416	0.381	0.366	0.328	0.4	0.995	0.947	0.464	0.554	1.08	0.874	0.903	0.72	0.563	–
NCI-H3122	0.879	0.9	–	1.18	1.4	0.347	0.333	–	0.375	0.355	0.187	0.183	0.166	0.149	0.895	0.769	0.293	0.251	0.159	0.149
PC-3 [JPC-3]	0.698	0.487	0.747	0.703	0.694	0.472	0.44	0.434	0.425	0.497	0.994	0.782	0.773	0.598	1	0.969	0.87	0.709	0.574	–
PC-14	0.95	0.819	0.751	0.84	0.785	0.54	0.482	–	0.575	0.447	0.131	0.113	0.153	0.141	0.911	0.823	0.809	0.885	0.693	0.132
RERF-LC-KJ	0.551	0.574	0.493	0.554	0.545	0.434	0.415	0.444	0.474	0.482	0.481	0.474	0.435	0.422	0.948	0.851	0.699	0.827	0.778	0.494
SK-LU-1	0.273	0.284	0.333	0.354	0.382	0.409	0.41	0.444	0.524	0.646	0.951	0.866	0.822	0.353	0.649	0.697	0.505	0.406	0.208	0.582
SK-MES-1	0.58	0.628	0.582	0.608	0.446	0.653	0.634	0.715	0.672	0.624	0.916	0.736	0.664	0.407	0.913	0.476	0.638	0.566	0.347	0.428
SW 900	0.601	0.49	–	0.6	0.703	0.468	0.434	–	0.589	0.809	0.439	0.471	0.487	0.224	0.79	0.669	0.708	0.698	0.499	0.459
SW 1573	0.737	0.557	0.559	0.54	0.551	0.394	0.344	0.436	0.352	0.441	0.732	0.76	0.538	0.331	0.876	0.723	0.616	0.513	0.152	0.555
